According to patent publication US20090018150A1, “5-Ht2b Receptor Antagonists” (ASTERAND UK LIMITED, priority 2003, published 2009):
Where a name gives a salt, the structure may show the parent alone.

How the values were obtained:
[1] = biological target: T1, cloned human 5-HT2A receptor (Homo sapiens, UniProt P28223); assay: Human 5-HT2A receptor binding assay; settings: [3H]ketanserin (1 nM) displacement, CHO-K1 cell membranes; read-out: 5-HT2A pKi (converted)
T1 construct: purchased Euroscreen; host or cells: CHO-K1
T1 sequence (P28223 whole entry): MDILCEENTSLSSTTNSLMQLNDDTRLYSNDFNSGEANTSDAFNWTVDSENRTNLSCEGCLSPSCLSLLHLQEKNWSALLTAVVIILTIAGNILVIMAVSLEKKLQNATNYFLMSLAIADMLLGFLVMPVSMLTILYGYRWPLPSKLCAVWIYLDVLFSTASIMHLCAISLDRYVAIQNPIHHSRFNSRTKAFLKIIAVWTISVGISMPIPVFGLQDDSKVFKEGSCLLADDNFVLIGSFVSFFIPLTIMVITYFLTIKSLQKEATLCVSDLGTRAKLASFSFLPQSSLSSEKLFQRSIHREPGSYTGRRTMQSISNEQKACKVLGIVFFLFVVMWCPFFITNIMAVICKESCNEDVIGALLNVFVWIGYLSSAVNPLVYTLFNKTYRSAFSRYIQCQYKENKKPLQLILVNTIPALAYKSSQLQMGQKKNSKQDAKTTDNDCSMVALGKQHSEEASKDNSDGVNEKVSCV
Protocol: (§1) The binding affinity of ligands for human 5-HT2A and 5-HT2C receptors was determined using the following assay.
Membrane preparations from CHO-K1 cells expressing the cloned human 5-HT2A receptor were obtained (Euroscreen). The membranes were thawed rapidly and diluted in assay buffer containing Tris-HCl (50 mM, pH 7.7). The membranes were resuspended by homogenisation, prior to adding 15 μg of membranes to assay wells containing [3H]ketanserin (1 nM), assay buffer (50 mM Tris at pH 7.4) containing pargyline (10 μM), and test compounds (1×10^−10 to 1×10^−4M). Non specific binding was determined in the presence of 100 μM mianserin. After 15 minutes incubation at 37° C., the assay mixture was filtered through a combination of GF-C and GF-B filters, pre-soaked in 0.05% Brij, using a Brandel cell harvester, and were washed three times using ice cold Tris-HCl buffer (50 mM). Radioactivity retained on the filters was determined by liquid scintillation counting. For each test compound, the concentration that inhibited binding of [^3H]ketanserin by 50% was determined using curve fitting software (Prism). Kd values (concentration of ketanserin required to occupy 50% of the receptor binding sites at equilibrium) determined from saturation binding studies were then used to calculate inhibition dissociation constants (Ki) using the following equation: […]

[2] = biological target: T2, cloned human 5-HT2C receptor (Homo sapiens, UniProt P28335); assay: Human 5-HT2C receptor binding assay; settings: [3H]mesulergine (1 nM) displacement, CHO-K1 cell membranes; read-out: 5-HT2C pKi (converted)
T2 construct: purchased Euroscreen; host or cells: CHO-K1
T2 sequence (P28335 33-458): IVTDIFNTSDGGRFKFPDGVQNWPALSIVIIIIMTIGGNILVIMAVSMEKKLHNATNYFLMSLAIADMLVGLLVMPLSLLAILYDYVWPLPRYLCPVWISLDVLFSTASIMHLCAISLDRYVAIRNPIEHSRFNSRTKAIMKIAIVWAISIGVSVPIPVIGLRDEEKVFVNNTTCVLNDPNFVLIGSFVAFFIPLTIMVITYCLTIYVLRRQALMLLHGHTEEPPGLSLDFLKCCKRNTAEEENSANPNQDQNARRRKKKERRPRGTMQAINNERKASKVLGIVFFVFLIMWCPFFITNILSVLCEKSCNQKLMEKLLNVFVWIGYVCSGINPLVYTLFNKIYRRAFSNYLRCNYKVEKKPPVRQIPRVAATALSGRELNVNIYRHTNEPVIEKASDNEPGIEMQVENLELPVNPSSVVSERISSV
Protocol: as §1
Membrane preparations from CHO-K1 cells expressing the cloned human 5-HT2C receptor were obtained (Euroscreen). The membranes were thawed rapidly and diluted in assay buffer containing Tris-HCl (50 mM, pH 7.7), ascorbic acid (0.1%) and pargyline (10 μM). The membranes were resuspended by homogenisation, prior to adding 6 μg of membranes to assay wells containing [^3H]mesulergine (1 nM), assay buffer (50 mM Tris at pH 7.7 and 0.1% ascorbic acid) containing pargyline (10 μM), and test compounds (1×10^−10 to 1×10^−4M). Non specific binding was determined in the presence of 100 μM mianserin. After 30 minutes incubation at 37° C., the assay mixture was filtered through a combination of GF-C and GF-B filters, pre-soaked in 1% bovine serum albumin, using a Brandel cell harvester, and were washed three times using ice cold Tris-HCl buffer (50 mM). Radioactivity retained on the filters was determined by liquid scintillation counting. For each test compound, the concentration that inhibited binding of [^3H]mesulergine by 50% was determined using curve fitting software (Prism). Kd values (concentration of mesulergine required to occupy 50% of the receptor binding sites at equilibrium) determined from saturation binding studies were then used to calculate inhibition dissociation constants (Ki) using the following equation: […]

[3] = biological target: T3, human cloned 5-HT2B receptors (Homo sapiens, UniProt P41595); assay: Human cloned 5-HT2B receptor binding assay; settings: [3H]LSD (1 nM) displacement, membranes of CHO-K1 cells expressing cloned 5-HT2B receptor; read-out: 5-HT2B pKi (converted)
T3 construct: expressed in transfected cells; host or cells: CHO-K1
T3 sequence (P41595 whole entry): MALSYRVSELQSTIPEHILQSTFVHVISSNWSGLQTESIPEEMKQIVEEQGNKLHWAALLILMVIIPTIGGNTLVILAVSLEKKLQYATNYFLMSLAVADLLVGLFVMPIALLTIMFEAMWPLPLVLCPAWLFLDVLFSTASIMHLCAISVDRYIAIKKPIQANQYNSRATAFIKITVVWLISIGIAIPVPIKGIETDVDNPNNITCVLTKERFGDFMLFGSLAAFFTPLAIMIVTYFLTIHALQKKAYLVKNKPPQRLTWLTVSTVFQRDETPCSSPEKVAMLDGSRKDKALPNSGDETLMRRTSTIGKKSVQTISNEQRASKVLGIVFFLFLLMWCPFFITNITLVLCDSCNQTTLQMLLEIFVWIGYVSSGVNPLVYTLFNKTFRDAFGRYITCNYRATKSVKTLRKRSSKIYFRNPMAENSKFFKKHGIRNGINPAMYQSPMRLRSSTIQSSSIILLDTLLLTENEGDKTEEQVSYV
Protocol: The binding affinity of the compounds for human cloned 5-HT2B receptors was determined using the following assay.
CHO-K1 cells expressing cloned 5-HT2B receptor were maintained in Ultra-CHO medium containing 400 μg/ml of G418, 100 U/ml penicillin, 100 μg/ml streptomycin, 2.5 μg/ml fungizone and 1-foetal bovine serum, in 95/5% O2/CO2 at 37° C. The cells were harvested using 0.25% trypsin and were centrifuged at 800 rpm for 8 minutes. The cells were homogenised in 50 mM HEPES buffer containing 1 mM disodium EDTA and 1 mM PMSF at pH 7.4, using a Dounce homogeniser (20 strokes). The homogenate was centrifuged at 2280 rpm (1000 g) and 4° C. for 10 minutes, after which the supernatant was removed by decanting. The pellet was re-homogenised as above, and the resulting supernatant removed and combined with that already obtained. The supernatant solution was then centrifuged at 18300 rpm (40000 g) for 10 minutes at 4° C. using a Sorvall centrifuge. The supernatant was removed, and the pellet was re-suspended in 50 mM buffer at pH 7.4 using a Ultra-turrax T25 Polytron, before centrifugation again at 40000 g as above. This wash procedure was repeated, after which the membrane preparation was stored at a concentration of 1 mg/ml at −80° C. until use.
The membranes were thawed rapidly and diluted in assay buffer containing Tris-HCl (50 mM, pH 7.4), ascorbic acid (0.1°) and calcium chloride (4 mM). The membranes were homogenised to resuspend them, prior to adding 10 or 15 μg of membranes to assay wells containing [^3H]LSD (1 nM), assay buffer (50 mM Tris, 4 mM calcium chloride and 0.1° ascorbic acid) containing pargyline (10 μM), and the test compounds (1×10^−10 to 1×10^−4M). Non specific binding was determined in the presence of 100 μM 5-HT. After 30 minutes incubation at 37° C., the assay mixture was filtered through a combination of GF-C and GF-B filters, pre-soaked in 1% polyethyleneimine, using a Brandel cell harvester, and were washed three times using 50 mM Tris-HCl. Radioactivity retained on the filters was determined by liquid scintillation counting. For each test compound, the concentration that inhibited binding of [^3H]LSD by 50% was determined using curve fitting software (Prism). Kd values (concentration of LSD required to occupy 50% of the receptor binding sites at equilibrium) determined from saturation binding studies were then used to calculate inhibition dissociation constants (Ki) using the following equation: […]
This approach follows that set out in Kenakin, T. P. Pharmacologic analysis of drug-receptor interaction. Raven Press, New York, 2nd Edition.

| SMILES | Ki [1] | Ki [2] | Ki [3] |
| --- | --- | --- | --- |
| Nc1ncc(-c2cccc(-c3ccc(F)cc3)c2)o1 [Compound 209J, 5-(4′-Fluoro-biphenyl-3-yl)-oxazol-2-ylamine, trifluoroacetic acid] | > 1 µM | > 1 µM | < 1 µM |
| Nc1nc(-c2cccc(-c3ccccc3)c2)c[nH]1 [Compound 108, 4-biphenyl-3-yl-1H-imidazol-2-ylamine] | > 0.316 µM | > 0.1 µM | < 0.1 µM |
| COc1ccccc1-c1cccc(-c2cnc(N)o2)c1 [Compound 209G, 5-(2′-Methoxy-biphenyl-3-yl)-oxazol-2-ylamine trifluoroacetic acid] | > 1 µM | > 1 µM | < 0.1 µM |
| CCOc1ccc2ccccc2c1-c1c[nH]c(N)n1 [Compound 104A, 4-(2-Ethoxy-naphthalen-1-yl)-1H-imidazol-2-ylamine] | > 1 µM | > 0.1 µM | < 1 µM |
| COc1ccc(Nc2cc(C)nc(N)n2)cc1Cl [Compound 2AC, N^4-(3-chloro-4-methoxy-phenyl)-6-methyl-pyrimidine-2,4-diamine, hydrochloride] | > 1 µM | > 1 µM | < 1 µM |
| Cc1cc(Nc2ccc3c(c2)CCC3)nc(N)n1 [Compound 2J, N^4-indan-5-yl-6-methyl-pyrimidine-2,4-diamine hydrochloride] | > 10 µM | > 1 µM | < 0.1 µM |
| Cn1nc(Nc2ccc(-c3ccccc3)cc2)nc1N [Compound 411A, N^3-biphenyl-4-yl-1-methyl-1H-[1,2,4]triazole-3,5-diamine trifluoroacetic acid] | > 1 µM | > 1 µM | < 1 µM |
| Cc1[nH]c(N)nc1-c1cccc2ccccc12 [Compound 104I, 5-Methyl-4-naphthalen-1-yl-1H-imidazol-2-ylamine] | > 3.16 µM | > 1 µM | < 0.1 µM |
| COc1ccccc1-c1cccc(Nc2nc(N)nn2C)c1 [Compound 406B, N^5-(2′-methoxy-biphenyl-3-yl)-1-methyl-1H-[1,2,4]triazole-3,5-diamine] | > 1 µM | > 1 µM | < 0.316 µM |
| CCOc1ccc2ccccc2c1-c1c[nH]c(NC(C)=O)n1 [Compound 103A, N-[4-(2-Ethoxy-naphthalen-1-yl)-1H-imidazol-2-yl]-acetamide] | > 3.16 µM | > 1 µM | < 0.1 µM |
| CC(=O)c1cccc(-c2cccc(Nc3cc(C)nc(N)n3)c2)c1 [Compound 10C, 1-[3′-(2-amino-6-methyl-pyrimidin-4-ylamino)-biphenyl-3-yl]-ethanone trifluoroacetic acid] | > 0.316 µM | > 0.316 µM | < 1 µM |
| Nc1nc(-c2ccc(-c3ccccc3)cc2)c[nH]1 [Compound 104P, 4-Biphenyl-4-yl-1H-imidazol-2-ylamine] | > 0.1 µM | > 0.316 µM | < 0.316 µM |
| COc1ccccc1-c1cccc(-c2nc(N)oc2C)c1 [Compound 218C, 4-(2′-methoxy-biphenyl-3-yl)-5-methyl-oxazol-2-ylamine, trifluoroacetic acid] | > 1 µM | > 1 µM | < 0.316 µM |
| Cc1cc(Nc2ccc(Br)cc2)nc(N)n1 [Compound 2F, N^4-(4-bromo-phenyl)-6-methyl-pyrimidine-2,4-diamine hydrochloride] | > 10 µM | > 10 µM | < 1 µM |
| Cc1cc(Nc2cccc(CO)c2)nc(N)n1 [Compound 2X, [3-(2-amino-6-methyl-pyrimidin-4-ylamino)-phenyl]-methanol hydrochloride] | > 1 µM | > 1 µM | < 1 µM |
| Cc1cc(Nc2ccc(C)c(Br)c2)nc(N)n1 [Compound 2S, N^4-(3-bromo-4-methyl-phenyl)-6-methyl-pyrimidine-2,4-diamine hydrochloride] | > 1 µM | > 0.316 µM | < 0.1 µM |
| CC(C)c1[nH]c(N)nc1-c1cccc2ccccc12 [Compound 104K, 5-Isopropyl-4-naphthalen-1-yl-1H-imidazol-2-ylamine] | > 0.1 µM | > 0.316 µM | < 0.1 µM |
| CC(=O)Nc1nc(-c2c(O)ccc3ccccc23)c[nH]1 [Compound 103Q, N-[4-(2-hydroxy-naphthalen-1-yl)-1H-imidazol-2-yl]-acetamide] | > 3.16 µM | > 1 µM | < 1 µM |
| Cc1cccc(-c2ccc(Nc3nc(N)n(C)n3)cc2)c1 [Compound 411C, 1-methyl-N^3-(3′-methyl-biphenyl-4-yl)-1H-[1,2,4]triazole-3,5-diamine trifluoroacetic acid] | > 1 µM | > 1 µM | < 1 µM |
| Cc1cc(Nc2cccc3c2CCC3)nc(N)n1 [Compound 2R, N^4-indan-4-yl-6-methyl-pyrimidine-2,4-diamine hydrochloride] | > 1 µM | > 1 µM | < 1 µM |
| Cc1cc(Nc2cccc(-c3ccccc3)c2)nc(N)n1 [Compound 10A, N^4-biphenyl-3-yl-6-methyl-pyrimidine-2,4-diamine trifluoroacetic acid] | > 0.1 µM | > 0.316 µM | < 0.1 µM |
| Cc1cccc(-c2ccc(Nc3cc(C)nc(N)n3)cc2)c1 [Compound 11B] | > 1 µM | > 0.0316 µM | < 0.01 µM |
| Cc1cc(Nc2ccc(I)c(Cl)c2)nc(N)n1 [Compound 2Y, N-(3-chloro-4-iodo-phenyl)-6-methyl-pyrimidine-2,4-diamine hydrochloride] | > 1 µM | > 1 µM | < 0.1 µM |
